Like-named read-outs stand apart in the source and are kept apart here.
Assays:
[1] = system: Cellulolytic Enzyme Composition #1; experiment: mini-plate-scale AVICEL hydrolysis by Cellulolytic Enzyme Composition #1; type: biochemical, Trichoderma reesei; settings: for Effect on hydrolysis (in words) / Effect on enzymatic cellulolysis: gain in initial rate / Effect on enzymatic cellulolysis: gain in extended hydrolysis extent / Effect on enzymatic cellulolysis: loss in initial rate / Effect on enzymatic cellulolysis: loss in extended hydrolysis extent: 10 mM; for Effect on enzymatic cellulolysis: gain in initial rate / Effect on enzymatic cellulolysis: gain in extended hydrolysis extent / Effect on enzymatic cellulolysis: loss in initial rate / Effect on enzymatic cellulolysis: loss in extended hydrolysis extent: 25 g AVICEL and 0.25 g enzyme per liter, pH 5, 50° C.; for Effect on enzymatic cellulolysis: gain in extended hydrolysis extent / Effect on enzymatic cellulolysis: loss in extended hydrolysis extent: after 4 days; for IC50: AVICEL hydrolysis, 0.2 to 2 mM inhibitor
Description: (§1) Various (biologically common) divalent metal cations with variable ionic radii were tested in 2.8 ml Deep Well Microplates (VWR International, West Chester, Pa., USA) (“mini-plate-scale”) containing 1 ml suspensions of 25 g of AVICEL® per liter in 50 mM sodium acetate pH 5 at 50° C. Cellulolytic Enzyme Composition #1 was added at 0.25 g per liter for each hydrolysis. The mini-plates were sealed at 160° C. for 2 seconds using an ABGENE® ALPS 300™ sealer (ABgene, Rochester, N.Y., USA). The sealed mini-plates were incubated at 50° C. in an INNOVA® 4080 incubator shaker at 150 rpm. Soluble reducing sugars were measured by HPLC as described in Example 30.
Iron-chelator complexes of variable size or redox property were tested for their ability to inhibit enzymatic hydrolysis of cellulose. […]

[2] = cited from earlier work; for Radius: ionic radii in crystals, 6-ligand coordination
[3] = system: Cellulolytic Enzyme Composition #1; experiment: Pre-incubation of iron ion with PASC or enzyme, then PASC hydrolysis; type: biochemical, Trichoderma reesei
Description: The “pre-incubation” study was also performed for the hydrolysis of PASC. The experiments were similar to those described above, except 2 g of PASC, replacing AVICEL®, and 0.01 g of Cellulolytic Enzyme Composition #1 per liter of 50 mM sodium acetate pH 5, and 3 days pre-incubation were used. All hydrolyses were performed using the “mini-plate-scale” hydrolysis reaction according to the procedure described in Example 32, except for the change in cellulose or cellulase described above.

[4] = system: Cellulolytic Enzyme Composition #1; experiment: Pre-incubation of iron ion with AVICEL or enzyme, then AVICEL hydrolysis; type: biochemical, Trichoderma reesei
Description: To test whether Fe(II) affects cellulose or cellulase, 10 mM FeCl2 was pre-incubated with either 25 g of AVICEL® or 0.25 g of Cellulolytic Enzyme Composition #1 per liter of 50 mM sodium acetate pH 5 for three days. “Fe-pretreated” AVICEL® was washed and Cellulolytic Enzyme Composition #1 was gel-filtered using BioSpin 6 desalting columns (Bio-Rad, Hercules, Calif., USA) to remove residual Fe ion. Fe-pretreated AVICEL® was hydrolyzed with fresh Cellulolytic Enzyme Composition #1 or Cellulolytic Enzyme Composition #1 subjected to “FeCl2-less” pre-incubation and gel filtration. Fe-pretreated Cellulolytic Enzyme Composition #1 was applied to hydrolyze fresh AVICEL® or AVICEL® subjected to “FeCl2-less” pre-incubation and washing, in comparison with the hydrolysis of fresh AVICEL® ([…]) by fresh Cellulolytic Enzyme Composition #1 ([…]), with or without 10 mM FeCl2. All hydrolyses were performed using the “mini-plate-scale” hydrolysis reaction procedure described in Example 32, except for the change in cellulose or cellulase described above.
To test whether Fe(III) affected cellulose or cellulase, 10 mM FeCl3 was pre-incubated with either 25 g of AVICEL® or 0.25 g of Cellulolytic Enzyme Composition #1 per liter of 50 mM sodium acetate pH 5 for three days. All hydrolyses were performed using the “mini-plate-scale” hydrolysis reactions according to the procedure described in Example 32, except for the change in cellulose or cellulase described above.

[5] = system: Cellulolytic Enzyme Composition #1; experiment: mini-plate-scale PASC hydrolysis by Cellulolytic Enzyme Composition #1; type: biochemical, Trichoderma reesei; settings: 10 mM; 2 g PASC and 0.01 g enzyme per liter
Description: as §1
In one series of “mini-scale” hydrolysis reactions performed according to the procedure described in Example 30, the effect of 1 mM to 10 mM FeSO4 was evaluated in the hydrolysis of AVICEL® by Cellulolytic Enzyme Composition #1. In a series of “mini-plate-scale” hydrolysis reactions performed according to the procedure described in Example 32, the effect of 1 mM to 10 mM FeSO4 was evaluated in the hydrolysis of PASC by Cellulolytic Enzyme Composition #1, except 2 g of PASC and 0.05 g Cellulolytic Enzyme Composition #1 per liter of 50 mM sodium acetate pH 5 were used.
The above study was extended to a range of concentration of Fe(II) and cellulose. In a series of “mini-plate-scale” hydrolysis reactions performed according to the procedure described in Example 32, except that 0.1 to 10 mM FeSO4, 0.6 to 4 g of PASC and 0.01 g of Cellulolytic Enzyme Composition #1 per liter of 50 mM sodium acetate pH 5 were used.

[6] = single-electron redox potential vs NHE
[7] = read-out: I50 estimated based on limited data
[8] = single-electron oxidation potential of iron-chelator complexes
[9] = fresh salt, PASC, enzyme fresh or buffer pre-incubated
[10] = pre-incubated 3 days with Cellulolytic Enzyme Composition #1
[11] = 10 mM fresh salt, fresh AVICEL, fresh enzyme
[12] = 10 mM, pre-incubated three days with AVICEL
[13] = 10 mM, pre-incubated three days with Cellulolytic Enzyme Composition #1

Molecule | Effect on hydrolysis (in words) [1] | Radius [2] | E° [2, 6] | Effect on enzymatic cellulolysis: loss in initial rate [1] | Effect on enzymatic cellulolysis: loss in extended hydrolysis extent [1] | IC50 ([1]; read-out: I50) | also measured
[Cl-].[Cl-].[Mg+2] [Mg(II), MgCl2] | slight enhancement | 0.72 Å | −0.33 V | – | – | – | Effect on enzymatic cellulolysis: gain in initial rate [1]: ~20% gain in initial rate, ~20% gain in extended hydrolysis extent; Effect on enzymatic cellulolysis: gain in extended hydrolysis extent [1]: ~20% gain in initial rate, ~20% gain in extended hydrolysis extent
quinone [reference compound] | – | – | – | – | – | – | IC50 [1, 7]: ~5 mM
Fe(2,2′-bipyridyl)3Cl3 [Fe(III)(2,2′BP)2Cl3] | – | – | – | ~100% loss in initial rate, ~100% loss in extended hydrolysis extent | ~100% loss in initial rate, ~100% loss in extended hydrolysis extent | 0.6 ± 0.1 mM | E° [2, 8]: 0.78 V
[Cl][Cr]([Cl])[Cl] [Cr(III), CrCl3] | moderate | 0.62 Å | −0.407 V | ~40% loss in initial rate, ~40% loss in extended hydrolysis extent | ~40% loss in initial rate, ~40% loss in extended hydrolysis extent | – | IC50 [1, 7]: > 10 mM
O=S(=O)([O-])[O-].[Co+2] [Co(II), CoSO4] | slight or moderate inhibition | 0.65 Å | – | ~10% | no change | – | E° ([2]; 2-electron E° (in parenthesis)): (−0.28) V
[Cl][Ni][Cl] [Ni(II), NiCl2] | slight or moderate inhibition | 0.69 Å | −1.56 V | ~20% | ~10% | – | –
O=S(=O)([O-])[O-].[Cu+2] [Cu(II), CuSO4] | – | 0.73 Å | 0.153 V | ~90% | ~80% | 0.2 mM | –
O=S(=O)([O-])[O-].[Mn+2] [Mn(II), MnSO4] | slight or moderate inhibition | 0.67 Å | – | ~10% | no change | – | Effect on hydrolysis over concentration range ([1]; 0.1 to 10 mM): no effect; E° ([2]; 2-electron E° (in parenthesis)): (−1.185) V
[Ca+2].[Cl-].[Cl-] [Ca(II), CaCl2] | slight enhancement | 1.00 Å | −0.96 V | – | – | – | Effect on enzymatic cellulolysis: gain in initial rate [1]: ~20% gain in initial rate, ~20% gain in extended hydrolysis extent; Effect on enzymatic cellulolysis: gain in extended hydrolysis extent [1]: ~20% gain in initial rate, ~20% gain in extended hydrolysis extent
[Cl][Ru]([Cl])[Cl] [Ru(III), RuCl3] | pronounced | 0.68 Å | 0.249 V | ~90% | ~80% | 0.15 mM | –
O=C([O-])CN(CCN(CC(=O)[O-])CC(=O)[O-])CC(=O)[O-].[Fe+2].[Na+].[Na+] [Fe(II)Na2EDTA, FeNa2EDTA] | – | – | – | ~80% loss in initial rate, ~80% loss in extended hydrolysis extent | ~80% loss in initial rate, ~80% loss in extended hydrolysis extent | – | IC50 [1, 7]: < 10 mM; E° [2, 8]: (=Fe(III)NaEDTA's)
[Cl][Fe]([Cl])[Cl] [Fe(III), FeCl3] | – | 0.55 Å | 0.771 V | ~90% loss in initial rate, ~90% loss in extended hydrolysis extent | ~90% loss in initial rate, ~90% loss in extended hydrolysis extent | 0.5 ± 0.4 mM | Effect on enzymatic cellulolysis: loss in extended hydrolysis extent ([1]; listed as FeCl3): ~90%; Effect on enzymatic cellulolysis: loss in initial rate ([1]; listed as FeCl3): ~90%; loss in extent of hydrolysis [3, 9]: approximately 30%; loss in initial rate [3, 9]: ~70%; loss in extent of hydrolysis [3, 10]: no loss; loss in initial rate [3, 10]: ~50%; loss in extent of hydrolysis ([3]; pre-incubated 3 days with PASC): ~10%; loss in initial rate ([3]; pre-incubated 3 days with PASC): ~50%; loss in extent of hydrolysis [4, 11]: ~90%; loss in initial rate [4, 11]: ~90%; loss in extent of hydrolysis [4, 12]: ~80%; loss in initial rate [4, 12]: ~80%; loss in extent of hydrolysis [4, 13]: ~20%; loss in initial rate [4, 13]: ~20%; loss of extent of hydrolysis after 4 days [5]: ~80%; loss of initial hydrolysis rate [5]: ~80%
O=S(=O)([O-])[O-].[Zn+2] [Zn(II), ZnSO4] | slight or moderate inhibition | 0.74 Å | −2.3 V | ~20% loss in initial rate, ~20% loss in extended hydrolysis extent | ~20% loss in initial rate, ~20% loss in extended hydrolysis extent | – | –
O=C([O-])CN(CCN(CC(=O)[O-])CC(=O)[O-])CC(=O)[O-].[Fe+3].[Na+] [Fe(III)NaEDTA, FeNa(EDTA)] | – | – | – | ~10% | ~20% | – | IC50 [1, 7]: ~10 mM; E° [2, 8]: 0.13^2 V
Fe(2,2′-bipyridyl)3Cl2 [Fe(II)(2,2′BP)2Cl2] | – | – | – | ~40% loss in initial rate, ~40% loss in extended hydrolysis extent | ~40% loss in initial rate, ~40% loss in extended hydrolysis extent | 20 mM | –

From patent US20090130707A1, “Methods of reducing the inhibitory effect of a redox active metal ion on the enzymatic hydrolysis of cellulosic material” (priority 2007, published 2009)
